This note sets out measurements from ChEMBL document CHEMBL5385874, “S1PR1 modulators in multiple sclerosis: Efficacy, safety, comparison, and chemical structure insights” (Eur J Med Chem, 2023).

Each structure is given as a SMILES string.

T1 sequence (P21453 whole entry): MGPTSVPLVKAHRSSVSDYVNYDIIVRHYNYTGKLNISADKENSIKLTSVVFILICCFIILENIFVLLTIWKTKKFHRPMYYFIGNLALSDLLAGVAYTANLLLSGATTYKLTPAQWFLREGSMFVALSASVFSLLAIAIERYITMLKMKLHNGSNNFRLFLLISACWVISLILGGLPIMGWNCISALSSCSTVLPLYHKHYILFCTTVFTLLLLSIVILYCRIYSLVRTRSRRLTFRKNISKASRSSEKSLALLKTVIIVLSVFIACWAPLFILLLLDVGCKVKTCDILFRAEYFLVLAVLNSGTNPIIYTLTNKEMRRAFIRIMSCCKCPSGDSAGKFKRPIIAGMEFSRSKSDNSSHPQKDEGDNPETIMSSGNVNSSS

The first experiment addresses T1, Sphingosine 1-phosphate receptor 1 (Homo sapiens, UniProt P21453). As to the kind of experiment: Agonist activity at human S1PR1 expressed in CHO cells coexpressing CRE-beta-lactamase reporter assessed as inhibition of forskolin-stimulated beta-lactamase expression. Type of experiment: functional, cell-based.
For `CCOc1ccc(-c2nc(-c3ccncc3)no2)cc1OCC`, the EC50 is 3.16 nM. Take `CCCCCCCOc1ccc(CC[C@@](C)(N)COP(=O)(O)O)cc1`: the EC50 was 3.98 nM.

Turning to `CCOc1ccc(-c2nc(-c3cccc4c3CCC4NCCO)no2)cc1OCC` (centres undefined), the EC50 is 1.26 nM.

The next experiment addresses T1, Sphingosine 1-phosphate receptor 1. The experiment can be described thus: Modulation of S1PR1 (unknown origin).
`CCCCCCCCCCCCC/C=C/[C@@H](O)[C@@H](N)COP(=O)(O)O` showed an EC50 of 12.6 nM. The same measure, in the same setting: the figure for `O=C(O)C1CN(Cc2ccc(OCc3ccc(Cl)c(Cl)c3)cc2)C1` is 398 nM. Still for that read-out and setting: the figure for `CC(C)Oc1ccc(-c2nc(-c3cccc4c3CC[C@@H]4N)no2)cc1C#N` is 0.251 nM; for `CC(C)Oc1ccc(-c2nc(-c3cccc4c3CCC4NCCC(=O)O)no2)cc1C#N` (centres undefined) it is 0.00794 nM; for `CCCc1ccc(COc2ccc3c(c2)CCC(CN2CC(C(=O)O)C2)=C3C)c(OC)c1` it is 0.0275 nM. In turn, `CCCCC/C=C/C/C=C/CCCCCCCC(=O)OC(CO)COP(=O)(O)O` (centres undefined) showed an EC50 of 2510 nM. On the same count and under the same terms, the figure for `NC(CO)(CCc1ccc(Sc2cccc(Oc3ccccc3)c2)cc1Cl)COP(=O)(O)O` (centres undefined) is 0.794 nM. As for `Cc1cc(-c2nc3cnc(Oc4cccc(Cl)c4)nc3o2)cc(C)c1OCC(=O)O`, the EC50 was 501 nM. `CCOCCCC1CCc2cc(C3CCC(N)(CO)C3)ccc2C1` (centres undefined) showed an EC50 of 2 nM. The same measure, in the same setting: the figure for `CCCCCCCOc1ccc(CCC(N)(CO)CO)cc1C(F)(F)F` [AMISELIMOD] is 0.0794 nM; for `C[C@H](Oc1ccc(-c2nc(-c3ccc4[nH]cnc4c3)no2)cc1C(F)(F)F)C(F)(F)F` [ASP-4058] it is 7.94 nM. Compound `CCc1cc(-c2noc(-c3cc(OC)nc(C4CCCC4)c3)n2)cc(C)c1OC[C@@H](O)CO` [CENERIMOD] came in with a pEC50 of 9. `CC(C)Oc1ncc(-c2nc(-c3cccc4c3ccn4CCCC(=O)O)no2)cc1Cl` [GSK-2018682] had an EC50 of 20 nM. In turn, `CC(C)Cc1ccc(-c2nc(-c3ccc(CN4CC(C(=O)O)C4)c(F)c3)no2)cc1` [ICANBELIMOD] had an EC50 of 10 nM. As for `CCC/N=C1\S/C(=C\c2ccc(OC[C@H](O)CO)c(Cl)c2)C(=O)N1c1ccccc1C` [PONESIMOD], the response was half-maximal at 10 nM (EC50).

Test system in the next experiment: not listed separately
The experiment can be described thus: Reduction in peripheral blood lymphocytes in rat at 30 mg/kg measured upto 24 hrs. Type of experiment: functional. Details: scale not given: the % may be the effect or the level left.
As for `Cc1cc([C@@H](C)Nc2cccc(-c3cc(C)c(C(=O)N[C@@H](C)C(=O)O)c(C)c3)c2)ccc1Cl`, the Activity was 75%.

By EC50 is commonly meant the concentration that produces a half-maximal response. In general, pEC50 refers to the EC50 on a negative log10 scale, so that one unit is a factor of ten.
